Experimental data from patent US20190307833A1, “TREATMENT OF AGE-RELATED MACULAR DEGENERATION WITH NEUROTROPHIC PEPTIDERGIC COMPOUND” (The Research Foundation for Mental Hygiene, Inc., priority 2018, published 2019).
*1 amine or outer side, *2 acyl side, *3 side chain or, on linkers, in order; H or OH if unused. Where a SMILES comes first, the peptide text is derived from it. [ ]: non-standard residue; d: D form. X1 = O=C(C1(N[*:1])C2CC3CC(C2)CC1C3)[*:2]

What was measured:
VEGF = VEGF immunofluorescence in retina and optic nerve of aged 3×Tg-AD mice; format: in vivo, mouse
Description: (§1) At approximately 3 months of age, the female wild type and 3×Tg-AD mice were divided into five groups (n=6-7 mice per group) (FIG. 3A): (1) Wild type mice, age 3 months, without treatment (WT-3m); (2) 3×Tg-AD mice, age 3 months, without treatment (3×Tg-3m); (3) Wild type mice, age 3 months, treated with vehicle feed without P021 until the age of 21 months (WT-21m/Veh); (4) 3×Tg-AD-mice, age 3 months, treated with vehicle feed without P021 until the age of 21 months (3×Tg-21m/Veh); and (5) 3×Tg-AD-mice, age 3 months, treated with 60 nmol P021/g feed till the age of 21 months (3×Tg-21m/P021). The first two groups were the starting point and were employed as the matched young controls. P021 was formulated in the feed by Research Diets (New Brunswick, N.J., USA). Food consumption and body weight were recorded every 2 weeks and every month, respectively. The average mouse food consumption was ˜2.7 g feed/day.
(§2) The animals were anesthetized by using an overdose of avertin and then were transcardially perfused by using 0.1 M phosphate-buffered saline (PBS). Eyeballs were dissected out from the carcasses, immersion-fixed for 24 hours in 4% paraformaldehyde at 4° C., and then transferred to 70% alcohol for storage; in the case of mice, the eyeballs were prefixed by injecting 4% paraformaldehyde, followed by removal from the carcasses and immersion fixation as above. After the cornea and lens of the left eyes were removed, the remaining eye cup was embedded in paraffin with the orientation parallel to the optic nerve in longitudinal position. In all cases, 5-μm serial sections were cut by using a rotary microtome and were mounted on Superfrost Plus slides.
(§3) Paraffin sections were deparaffinized, rehydrated, and subjected to antigen retrieval by boiling for 20 minutes in 10 mM sodium citrate solution (pH 6.0). […] The area to be analyzed was selected and converted to grey scale, the threshold (Yen mode) was adjusted, and the area percentage of positive staining was measured for each section by using the NIH Image J software package. […]

[1] = Stability in artificial gastric juice; format: in vitro ADME; settings: simulated gastric fluid; during 30 minutes; read-out: stable in artificial gastric juice
Description: (§4) P021 is quite stable in artificial gastric juice (˜90% during 30 minutes) and in artificial intestinal juice (˜95% during 120 minutes).

[2] = test system: rat and mouse models of AD; settings: cited from earlier work
[3] = chronic oral treatment, aged rats and mice; cited from earlier work
RPE of aged 3×Tg-AD mice = test: Auto-fluorescence of RPE lipofuscin granules and deposits in aged 3×Tg-AD mice; format: in vivo, mouse
Description: as §1, §2
(§5) Paraffin sections were deparaffinized, rehydrated, and covered with coverslips with 0.1M PBS and then photographed by using a confocal microscope with red channel (λex=543, λem=590/50), as described previously. […] For quantification, the number of deposits between RPE and Cho in each section was manually counted by using a 20× or, where necessary, a higher magnification objective.

total tau, P-tau, Aβ/APP [4] = test: Tau, phosphorylated tau and Aβ/APP immunofluorescence in retina of aged rats; format: in vivo, rat
Description: (§6) Female aged (19˜21 months) Fisher rats (n=7) were given P021 per os by gavage (10 ml/kg body weight) once a day for 88 days. The dose of P021 was 500 nanomoles (289.15 microgram)/kg body weight daily. As controls, a second group of aged (19˜21 months) female rats (n=7) and a group of young adult female rats (2-3 months, n=7) were treated identically, but with normal saline (vehicle) only (FIG. 1A). Administration of vehicle and test compound was done at 7-9 AM daily in the pretesting phase.
as §2
(§7) Paraffin sections were deparaffinized, rehydrated, and subjected to antigen retrieval by boiling for 20 minutes in 10 mM sodium citrate solution (pH 6.0). Sections were then washed three times in 10 mM PBS for 15 minutes each and incubated in 0.3% Triton X-100 for 30 minutes. The sections were again washed in 10 mM PBS (15 minutes, three times each) and blocked in blocking solution (5% normal goat serum containing 0.1% Triton X-100 and 0.05% Tween 20 in PBS) for 45 minutes. Sections were then incubated overnight at 4° C. with the corresponding primary antibodies (see Table 1 for antibodies used in this study) diluted in the same blocking solution. After being washed three times for 15 minutes each with 10 mM PBS, sections were incubated with Alexa-Fluor 488-conjugated goat anti-mouse or anti-rabbit IgG secondary antibodies (1:1000) in 10 mM PBS with 0.05% Tween 20 for 2 hours at room temperature. Sections were subsequently washed one time and incubated with To-Pro (1:1000) for 15 minutes. After being washed three times for 15 minutes, sections were mounted and cover-slipped by using ProLong Gold anti-fade reagent. The absence of primary antibody control staining was included in each experiment as a negative control. Double immunofluorescence and To-Pro images were captured at equal camera exposure (for each antibody staining) with a Nikon EZ-C1 laser confocal imaging system. The area to be analyzed was selected and converted to grey scale, the threshold (Yen mode) was adjusted, and the area percentage of positive staining was measured for each section by using the NIH Image J software package. The staining area was averaged from 2-3 independent sections of each eye (n=5-7 different animals per group).

[5] = test system: retina of aged Fisher rats; test: Retinal morphology by H & E staining in aged Fisher rats; format: in vivo, rat; settings: 500 nmoles/kg/day by gavage, 3 months
Description: as §6, §2
(§8) Every 25th retinal section was deparaffinized and subjected to hematoxylin and eosin (H & E) staining to evaluate the morphology. The H & E staining images were captured with a light microscope using 2×, 40×, and 100× objective lenses. Because there is no significant difference between the ⅕th to the ⅓rd of the retina from the optic nerve head and the most peripheral part, the ⅕^th position of the retina from the optic nerve to the most peripheral part of the retina was chosen as the “central,” and the most peripheral part of the retina as “peripheral.” Rows of the outer nuclear layer (ONL) and the inner nuclear layer (INL) of the retina in each group (every 25th section, 3-5 sections per rat or mouse) were manually counted in three columns per image by using a 40× or, where necessary, a higher magnification objective. The thicknesses of the ONL and INL of the central and peripheral retina in each group (every 25th section from the optic nerve head, 2-3 sections per rat or mouse) were measured and quantified by using the ImageJ/NIH image analysis system.

GFAP [6] = test: GFAP immunofluorescence (astrogliosis) in retina of aged rats; format: in vivo, rat
Description: as §6
(§9) The animals were anesthetized by using an overdose of avertin and then were transcardially perfused by using 0.1 M phosphate-buffered saline (PBS). Eyeballs were dissected out from the carcasses, immersion-fixed for 24 hours in 4% paraformaldehyde at 4° C., and then transferred to 70% alcohol for storage; in the case of mice, the eyeballs were prefixed by injecting 4% paraformaldehyde, followed by removal from the carcasses and immersion fixation as above. […]
as §3

Iba-1 [7] = test: Iba-1 immunofluorescence (microgliosis) in retina of aged 3×Tg-AD mice; format: in vivo, mouse; settings: 60 nmoles/g feed from 3 to 21 months of age
Description: as §1, with “feed/day. […]” for “feed/day.”
as §3

GFAP [8] = test: GFAP immunofluorescence (astrogliosis) in retina of aged 3×Tg-AD mice; format: in vivo, mouse; settings: 60 nmoles/g feed from 3 to 21 months of age
Description: as §1, §2, §3

RPE of aged Fisher rats = test: Auto-fluorescence of RPE lipofuscin granules and deposits in aged Fisher rats; format: in vivo, rat; settings: 500 nmoles/kg/day by gavage, 3 months
Description: as §6, §9, §5

[9] = test system: retina of aged 3×Tg-AD mice; test: Retinal morphology by H & E staining in aged 3×Tg-AD mice; format: in vivo, mouse; settings: 60 nmoles/g feed from 3 to 21 months of age
Description: as §1, §2, §8

[10] = cited from earlier work
[11] = BBB studies through a commercial service (APREDICA)
[12] = Stability in artificial intestinal juice; format: in vitro ADME; settings: simulated intestinal fluid; during 120 minutes; read-out: stable in artificial intestinal juice
Description: as §4

total tau, P-tau, Aβ/APP [13] = test: Tau, phosphorylated tau and Aβ/APP immunofluorescence in retina and optic nerve of aged 3×Tg-AD mice; format: in vivo, mouse
Description: as §1, §2, §7

Iba-1 [14] = test: Iba-1 immunofluorescence (microgliosis) in retina of aged rats; format: in vivo, rat; settings: 500 nmoles/kg/day by gavage, 3 months
Description: as §6, §2
as §3, with “6.0). Sections were then washed three times in 10 mM PBS for 15 minutes each and incubated in 0.3% Triton X-100 for 30 minutes. The sections were again washed in 10 mM PBS (15 minutes, three times each) and blocked in blocking solution (5% normal goat serum containing 0.1% Triton X-100 and 0.05% Tween 20 in PBS) for 45 minutes.” for “6.0).”

[15] = 3×Tg-AD mice, 60 nmoles/g feed from 3 to 21 months of age
[16] = 60 nmoles/g feed from 3 to 21 months of age, auto-fluorescence

SMILES: CC(=O)N[C@@H](CC(=O)O)C(=O)NCC(=O)NCC(=O)N[C@@H](CC(C)C)C(=O)NC1(C(N)=O)C2CC3CC(C2)CC1C3 (stereo partly shown) [P021, Ac-DGGL^AG-NH2] (Ac-DGGL[X1]-NH2)
- VEGF staining in the optic nerve (VEGF; [15]): the size of the staining patch was decreased
- localization of VEGF-positive spots in the retina (VEGF; [15]): limited mainly to the GFL to the IPL
- expression of VEGF in retinas (VEGF; aged mice): prevents increase in the expression of VEGF
- remaining at 0.5 h [1]: ~90%
- cognitive impairment, synaptic deficit, neuroinflammation, tau and Aβ pathologies [2]: rescue cognitive impairment, synaptic deficit, neuroinflammation, and tau and Aβ pathologies
- general physical state (side effects) [3]: did not reveal any worsening in general physical state
- deposits between the RPE and Cho (RPE of aged 3×Tg-AD mice; [16]): significantly reduced
- lipofuscin granules in RPE (RPE of aged 3×Tg-AD mice; [16]): some small lipofuscin granules could still be observed
- RPE and BM abnormalities (AMD features) overall (RPE of aged 3×Tg-AD mice; P021 administered in the diet): Most of these AMD features were prevented
- tau and Aβ pathologies in the retina (total tau, P-tau, Aβ/APP [4]; aged rats, 500 nmoles/kg/day by gavage, 3 months): prevented the increase in tau and Aβ pathologies
- Aβ/APP immunoreactivity (total tau, P-tau, Aβ/APP [4]; retinas of aged rats): prevents increase of Aβ/APP immunoreactivity
- tau hyperphosphorylation at Ser-202/Thr-205 (AT8 site) (total tau, P-tau, Aβ/APP [4]; retinas of aged rats): prevents increase in the expression of tau hyperphosphorylation at Ser-202/Thr-205
- tau hyperphosphorylation at Ser-396/404 (PHF-1 site) (total tau, P-tau, Aβ/APP [4]; retinas of aged rats): prevents increase in the expression of tau hyperphosphorylation at Ser-396/404
- total tau immunoreactivity (R134d) (total tau, P-tau, Aβ/APP [4]; retinas of aged rats): prevents the increase in total tau immunoreactivity
- RPE vacuolization and atrophy [5]: no apparent abnormalities were observed
- arrangement of apical microvilli (AM) in RPE [5]: showed improvement in the arrangement of AM
- decrease in rows and thickness of ONL, central vs peripheral retina [5]: prevented these pathological changes more effectively in the central retina
- outer retinal folds and rosette-like structures in the central retina [5]: No abnormal structure like this was observed
- rows and thickness of INL in the central retina [5]: no detectable effect
- rows and thickness of ONL, P021-treated aged rats vs young rats [5]: no significant difference between ˜5- to 6-month-old rats and P021-treated ˜22- to 24-month-old rats
- rows of INL in the peripheral retina [5]: showed a clear trend to rescue the number of rows
- area percentage of GFAP-positive staining, central and peripheral retinas (GFAP [6]): drastically elevated in the central and peripheral retinas in ˜22- to 24-month-old/Veh rats as compared to ˜5- to 6-month-old/Veh rats and ˜22- to 24-month-old/P021 rats
- GFAP staining (GFAP [6]; 500 nmoles/kg/day by gavage, 3 months, vs vehicle aged rats): reduced very much
- Iba-1 immunostaining (area percentage) in the peripheral retina (Iba-1 [7]): decreased in 3×Tg-21 m/P021 mice to the levels in WT-3 m/Veh and 3×Tg-3 m/Veh mice
- distribution of Iba-1-positive staining in the central retina (Iba-1 [7]): Iba-1-positive staining was only observed in the GCL
- area percentage of GFAP from the NFL to the ONL in the central retina (GFAP [8]): reduced by P021 treatment to the levels in WT-3m/Veh and 3×Tg-3 m/Veh mice
- distribution of GFAP-positive staining (GFAP [8]): limited to the NFL and GCL
- area percentage of GFAP in the peripheral retina (GFAP [8]; similar trend): did not reach statistical significance
- lipofuscin granules and deposition number between RPE and Cho (RPE of aged Fisher rats): obviously decreased
- decrease in rows and thickness of INL in the central retina [9]: chronic treatment with P021 prevented these changes
- decrease in rows and thickness of ONL in the central retina [9]: prevented
- decrease in rows and thickness of ONL in the peripheral retina [9]: not in the peripheral retina
- extension of ONL nuclei across the OPL into the INL, central retina [9]: this pathology was prevented
- prevention of changes in rows and thickness of INL in the peripheral retina [9]: did not reach significance
- rescue of INL thickness in the central retina [9]: did not reach statistical significance
- oral bioavailability [10]: orally bioavailable
- crossing of the BBB [11]: a sufficient amount of P021 crossed the BBB
- remaining at 2 h [12]: ~95%
- tau and Aβ pathologies in the retina (total tau, P-tau, Aβ/APP [13]; [15]): prevented the increase in tau and Aβ pathologies
- Aβ/APP immunoreactivity (total tau, P-tau, Aβ/APP [13]; retinas of aged mice): prevents increase of Aβ/APP immunoreactivity
- tau hyperphosphorylation at Ser-202/Thr-205 (AT8 site) (total tau, P-tau, Aβ/APP [13]; retinas of aged mice): prevents increase in the expression of tau hyperphosphorylation at Ser-202/Thr-205
- tau hyperphosphorylation at Ser-396/404 (PHF-1 site) (total tau, P-tau, Aβ/APP [13]; retinas of aged mice): prevents increase in the expression of tau hyperphosphorylation at Ser-396/404
- total tau immunoreactivity (R134d) (total tau, P-tau, Aβ/APP [13]; retinas of aged mice): prevents the increase in total tau immunoreactivity
- relative Iba-1 immunostaining from the NFL to the OS, central and peripheral retinas (Iba-1 [14]): dramatically reduced
- Iba-1 staining from the ONL to the OS (Iba-1 [14]; especially central retina): no staining was found from the ONL to the OS
- localization of Iba-1 from the NFL to the OPL (Iba-1 [14]; vs vehicle aged rats): decrease in localization from the NFL to the OPL
